The values that follow come from patent US4472382A, “Treatment method” (Roussel Uclaf, priority 1979, dated 1984).

“Also recorded” adds a separate entry of the source.

Experiment [1] deals with ovarian steroidogenosis. In words: Inhibitory activity on ovarian steroidogenesis in women. Type of experiment: in vivo. As for the experimental part: The inhibitory activity of [D Ser (Tbu)^6, des Gly NH2^10 ] LH--RH ethylamide on ovarian steroidogenosis in women was determined on 6 women aged 26 to 35 years with normal and regular menstrual cycles and without prior endocrinal or gynecological problems. The study was conducted for 6 consecutive cycles consisting of 2 pretreatment cycles, 2 treatment cycles and 2 post-treatment cycles. Two drops of a solution containing 500 μg of [D Ser (Tbu)^6, des Gly NH2^10 ] LH--RH ethylamide were deposited on each nostril at 8 A.M. and 5 P.M. of a day between the 4th and 9th day after the peak of LH-day 0. Daily blood samples were taken between 4 and 6 P.M. to measure seric levels of LH, FSH, progesterone and estradiol which were determined by radioimmuno-logictests with double antibodies. The antibodies to measure LH and FSH were furnished by the National Pituitory Agency of N.I.H. of Bethesda, Md.
Estradiol and progesterone were measured with highly specific antibodies developed against 7-(O-carboxymethyl)-oxime of estradiol and 12-(O-carboxymethyl)-oxime of progesterone, respectively [3H] 17β-estradiol and ^125 I-progesterone-12-[O-carboxymethyl)-oxime]used as tracers. The serum was extracted with benzene and the steroids were separated with a LH-20 column before the determination. The radioimmunological results were exploited by the program derived from model II of Rodbard and Lewald as in Example 1 and the statistical significance was measured by the multiple level test of Ducan-Kramer of Example 1. The results are shown in the graphs of sheets 3 to 5 of the Figures.

The subject of experiment [2] is testicular steriodogenosis. Description: Inhibitory activity on testicular steroidogenesis in a patient with prostate cancer. Type of experiment: in vivo, human. Particulars: intranasal 500 μg twice a day. From the text: The inhibitory activity of [D Ser (Tbu)^6, des Gly NH2^10 ] […] The results are reported in the graphs of sheet 2 of the Figures.
In experiment [3] the test system is testicular steroidogensis. In words: Inhibitory activity against testicular steroidogenesis in men in good health, single intranasal administration. Type of experiment: in vivo. As for the experimental part: The said product was administered intranasally at a dose of 500 μg in a few drops of distilled water at 8 A.M. on the third day of the test. For 2 days prior to the treatment and for 6 days after the treatment, samples of blood were taken daily at 8 A.M., 3 P.M. and 10 P.M. On the day of administration of the LH--RH agonist, blood samples were taken at 11 A.M. and 6 P.M.
The seric concentrations of LH and FSH were measured by radioimmuno-logic dosages with double antibodies and the antibodies for measuring LH and FSH were furnished by the National Pituitary Agency of N.I.H. in Bethesda, Md. The seric concentrations of steroids was measured by radioimmuno-logic dosages in which one ml of serum was extracted with ether and the steroids were separated on a LH-20 column before measuring with radioimmuno-logic dosages. The radioimmuno-logic dosage results were determined by a program derived from model II of Rodbard et al [Second Karolinska Symposium on Research Methods in Reproductive Endrocrinology, Diczfalusky Editor, Copenhague (1970), p. 79-103]. The statistical significance was determined by the "multiple level test" of Duncan-Kramer [Kramer, Biometrics, Vol. 12 (1956), p. 307]. The results are shown in the graphs on sheet 1 of the Figures filed herewith.

Where [4] appears, read: intranasal 500 μg at 8 A.M. and 5 P.M. of one day in the luteal phase, typical subject of sheet 3.
The mark [5] stands for this setting: men, intranasal 500 μg, 3rd day following administration.

Regarding `CCNC(=O)[C@@H]1CCCN1C(=O)[C@H](CCCNC(=N)N)NC(=O)[C@H](CC(C)C)NC(=O)[C@@H](COC(C)(C)C)NC(=O)[C@H](Cc1ccc(O)cc1)NC(=O)[C@H](CO)NC(=O)[C@H](Cc1c[nH]c2ccccc12)NC(=O)[C@H](Cc1c[nH]cn1)NC(=O)[C@@H]1CCC(=O)N1` [[D Ser (Tbu)^6, des Gly NH2^10] LH--RH ethylamide], the “progesterone level, cycles of post-treatment, % of the control values (pretreatment cycles = 100%)” value in experiment [1] (12 cycles of post-treatment) was 99%. The “progesterone level, cycles of treatment, % of the control values (pretreatment cycles = 100%)” value in experiment [1] (12 cycles of treatment) is on record as 46%. Moreover, in experiment [1] (12 cycles, sheet 5, scale 13 to 127%), the “level of progesterone reduced as compared to the controls” value is 46%. In experiment [1] (setting [4]), the “reduction of seric levels of progesterone as compared to the controls, first cycle of treatment” value is 13% and the “reduction of seric levels of progesterone as compared to the controls, second cycle of treatment” value is 34%. Moreover, in experiment [1] (post-treatment cycles), the “level of seric progesterone in the 2 cycles of post-treatment” value is recorded as “return to normal”. Moreover, the “level of androgenic steroids” value in experiment [2] is recorded as “diminution”. Also, the level of testosterone result in experiment [2] (two weeks of treatment) is “stabilized at a very low level”. The “duration of the drop of seric levels of the steroids (testosterone and its precursors)” value in experiment [3] (human, single intranasal dose of 500 μg) is 3 days. Also, the “diminution of the level of testosterone” value in experiment [3] (human, single intranasal dose of 500 μg, 3rd day following administration) was 50%. In experiment [3] (human, single intranasal dose of 500 μg, fourth day (until the 6th day)), the “level of testosterone / steroids on the fourth day after administration” value is “returned to normal; also recorded: return to normal levels”. Also, in experiment [3] (setting [5]), the “concentration of 17-OH-progesterone relative to the initial control values” is 40% and the “concentration of testosterone relative to the initial control values” came out at 50%. Also, the “LH and FSH plasmatic levels” value in experiment [3] (men, intranasal 500 μg, after administration) is reported as “increase”. Also, the “seric concentration of pregnenolone, 17-OH-pregnenolone, progesterone, 17-OH-progesterone, Δ5-androstene-3β,17β-diol and testosterone” value in experiment [3] (men, intranasal 500 μg, on the day of treatment) is listed as “increased”.
